From patent US4954490A, “11 β-substituted progesterone analogs” (Research Triangle Institute, priority 1988, dated 1990)

Columns and labels:
[1] = comparison of mefipristone, ZK 98.299 (II), ZK 98.734 (III); cited from earlier work
glucocorticoid receptor = biological target: T1, glucocorticoid receptor (Rattus norvegicus, UniProt P06536); assay: Relative binding affinity to glucocorticoid receptor of thymus (displacement of tritium-labeled dexamethasone); set-up: species or system rat (adrenalectomized); conditions: relative to dexamethasone (=100)
T1 construct: glucocorticoid receptor from thymus of adrenalectomized rats; from tissue; host or cells: thymus of adrenalectomized rats
T1 sequence (P06536 1-795): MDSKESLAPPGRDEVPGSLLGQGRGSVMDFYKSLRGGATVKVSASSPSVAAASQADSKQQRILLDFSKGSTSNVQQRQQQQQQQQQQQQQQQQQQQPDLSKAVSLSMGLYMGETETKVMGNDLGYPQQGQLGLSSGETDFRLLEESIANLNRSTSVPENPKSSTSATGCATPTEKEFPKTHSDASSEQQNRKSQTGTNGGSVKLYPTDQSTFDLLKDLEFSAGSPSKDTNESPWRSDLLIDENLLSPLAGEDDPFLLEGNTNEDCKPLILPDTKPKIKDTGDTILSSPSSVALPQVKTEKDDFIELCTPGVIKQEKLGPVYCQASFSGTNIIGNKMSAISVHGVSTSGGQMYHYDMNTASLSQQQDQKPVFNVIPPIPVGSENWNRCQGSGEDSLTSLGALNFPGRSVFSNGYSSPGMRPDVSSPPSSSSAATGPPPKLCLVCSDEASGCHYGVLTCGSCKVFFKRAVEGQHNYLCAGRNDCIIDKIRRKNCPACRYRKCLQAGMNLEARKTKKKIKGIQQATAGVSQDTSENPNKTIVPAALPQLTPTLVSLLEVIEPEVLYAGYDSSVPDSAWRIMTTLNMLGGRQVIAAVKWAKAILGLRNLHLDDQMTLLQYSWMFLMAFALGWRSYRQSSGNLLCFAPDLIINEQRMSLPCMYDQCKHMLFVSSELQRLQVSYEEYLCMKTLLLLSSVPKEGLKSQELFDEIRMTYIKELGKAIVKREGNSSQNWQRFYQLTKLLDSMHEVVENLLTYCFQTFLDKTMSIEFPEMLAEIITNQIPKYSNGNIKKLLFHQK
Procedure: (§1) The in vitro activity of the subject compounds was determined by measuring the binding affinities (RBA) of these compounds relative to progesterone for the progesterone receptor in the cytosol obtained from estrogen-primedimmature rabbit uterus and by measuring the RBA relative to dexamethasone for the glucocorticoid receptor from thymus of adrenalectomized rats. These assays were carried out by the procedures of J. R. Reel et al., Fertility and Sterility, 31, 552 (1979) (progesterone) and G. P. Chrousos et al., Endocrinology, 107, 472 (1980) (glucocorticoid).
^b Relative ability to displace tritiumlabeled dexamethasone from the
receptor of the thymus of adrenalectomized rats as compared to […]

progesterone receptor = biological target: T2, progesterone receptor (Oryctolagus cuniculus, UniProt P06186); assay: Relative binding affinity to progesterone receptor in uterine cytosol (displacement of tritium-labeled progesterone); set-up: species or system rabbit (estrogen-primed immature female)
T2 construct: in the cytosol obtained from estrogen-primedimmature rabbit uterus; from tissue; host or cells: uterine cytosol of estrogen-primed immature female rabbits
T2 sequence (P06186 1-930): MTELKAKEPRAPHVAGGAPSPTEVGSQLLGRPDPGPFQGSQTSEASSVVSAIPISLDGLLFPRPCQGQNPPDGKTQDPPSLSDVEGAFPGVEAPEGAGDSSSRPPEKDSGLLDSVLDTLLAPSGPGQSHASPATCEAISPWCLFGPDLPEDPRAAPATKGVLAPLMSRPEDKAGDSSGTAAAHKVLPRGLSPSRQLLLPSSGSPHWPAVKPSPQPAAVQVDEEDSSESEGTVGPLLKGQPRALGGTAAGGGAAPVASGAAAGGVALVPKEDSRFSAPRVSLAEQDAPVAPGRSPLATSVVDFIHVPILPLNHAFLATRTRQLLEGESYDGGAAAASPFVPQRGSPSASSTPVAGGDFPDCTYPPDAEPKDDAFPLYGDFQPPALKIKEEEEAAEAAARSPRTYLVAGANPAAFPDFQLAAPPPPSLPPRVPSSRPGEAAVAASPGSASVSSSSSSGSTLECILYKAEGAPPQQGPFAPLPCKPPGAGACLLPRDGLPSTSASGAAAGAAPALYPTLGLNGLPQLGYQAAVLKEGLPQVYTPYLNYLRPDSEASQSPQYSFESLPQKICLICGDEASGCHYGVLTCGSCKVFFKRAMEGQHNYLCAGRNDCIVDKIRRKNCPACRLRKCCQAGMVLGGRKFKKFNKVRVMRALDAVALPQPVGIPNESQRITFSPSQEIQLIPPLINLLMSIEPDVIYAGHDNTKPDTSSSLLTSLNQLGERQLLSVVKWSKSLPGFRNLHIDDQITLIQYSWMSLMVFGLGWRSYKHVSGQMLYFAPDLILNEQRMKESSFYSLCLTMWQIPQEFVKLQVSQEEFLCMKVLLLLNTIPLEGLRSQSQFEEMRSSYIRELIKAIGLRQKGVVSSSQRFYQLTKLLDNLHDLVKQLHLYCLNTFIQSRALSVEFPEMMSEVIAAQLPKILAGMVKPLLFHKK
Procedure: as §1
^a Relative ability to displace tritiumlabeled progesterone from the
receptor in uterine cytosol from estrogenprimed immature female rabbits a
compared with progesterone (=100).

[2] = test system: endometrial response due to subcutaneous administration of progesterone; assay: Anti-McGinty intrauterine antiprogestational test; type: in vivo, estrogen-primed immature female rabbits; conditions: intrauterine
Procedure: The antiprogestational activity of the compounds was studied after both intrauterine and oral administration. In each case the compound was tested for its ability to inhibit the endometrial response due to subcutaneous administration of progesterone to estrogen-primed immature female rabbits. The methodology used for the intrauterine test has been described by D. A. McGinty et al. See Endocrinology, 24, 829 (1939). For oral administration of test compounds, the method used was analogous to that of Clauberg. See Clauberg, Zentr. Gynakol., 54, 2757 (1930) as modified by McPhail J. Physiol. (London), 83, 145 (1935). Each active compound was characterized by a dose-related ability to block the progestational effect of simultaneously administered progesterone. When the percent inhibition was plotted versus the log of the dose, linear relationships were obtained. Linear regression analysis permitted calculation of the ED50 and ED90 values (the doses required for 50% and 90% inhibition of the progesterone effect, respectively). The actual dose which gave 90% or more inhibition is also given, although this value is probably less accurate than the calculated values which are based on the dose-response line. […] Since the intrauterine administration bypasses most of the drug-metabolizing systems of the body, especially the liver, intrinsic activity is expected to correlate reasonably well with binding activity to the receptor, according to currently held hypotheses regarding receptor binding.

[3] = test system: endometrial proliferation (McPhail Index); assay: Progestational activity, intrauterine (McGinty assay); type: in vivo, estrogen-primed immature female rabbits; conditions: right horn control 0
Procedure: In this assay estrogen-primed immature female rabbits are treated by injection of the test compound into the left horn of the uterus while the right horn is left untreated as a control. Each horn is then scored for endometrial proliferation by the McPhail Index. […] It indicates a possible need for reassessment of the current hypotheses regarding the effect of this substituent on antagonist versus agonist activity.

[4] = test system: estrogen-insensitive T47Dco human breast cancer cells; conditions: Horwitz 1985; cited from earlier work
Cushing's syndrome = conditions: cited from earlier work
[5] = from % Inhib = a + b · ln dose, results variable, data from "best run"

Structure (SMILES): CN(C)c1ccc(C2CC3(C)C(CCC3(O)CCCO)C3CCC4=CC(=O)CCC4=C23)cc1 (stereo not drawn) [ZK 98.299]
- antiglucocorticoid activity relative to antigestagenic potency (rank) [1]: intermediate position

Structure (SMILES): CC[C@@H]1C[C@H]2[C@@H]3CCC4=CC(=O)CCC4=C3[C@@H](c3ccc(N(C)C)cc3)C[C@]2(C)[C@H]1C(C)=O [Compound 19, 16α-Ethyl-118-(4-N,N-dimethylaminophenyl)-19-norpregna-4,9-diene-3,20-dione]
- Glucocort. RBA (glucocorticoid receptor): 124
- P-RBA/G-RBA (progesterone receptor; ratio of RBA values for progesterone receptor to glucocorticoid receptor): 0.65
- Progestin RBA (progesterone receptor; relative to progesterone (=100), rabbit uterine cytosol): 80
- ED90 (actual dose) ([2]; footnote c: no inhibition at tested dose): < 80 µg
- McPhail Index, Left Horn (Treated) ([3]; dose 2.0 μg intrauterine): 3.0 ± 0.32
- McPhail Index, Left Horn (Treated) ([3]; dose 4.0 μg intrauterine): 3.7 ± 0.12
- McPhail Index, Left Horn (Treated) ([3]; dose 8.0 μg intrauterine): 3.6 ± 0.10

Structure (SMILES): CN(C)c1ccc([C@H]2C[C@@]3(C)[C@@H](CC[C@@]3(O)/C=C\CO)[C@@H]3CCC4=CC(=O)CCC4=C32)cc1 [ZK 98.734]
- antiglucocorticoid activity relative to antigestagenic potency (rank) [1]: least active

Structure (SMILES): CC#C[C@]1(O)CC[C@H]2[C@@H]3CCC4=CC(=O)CCC4=C3[C@@H](c3ccc(N(C)C)cc3)C[C@@]21C [RU-486, reference compound]
- growth-inhibitory properties [4]: exhibits growth-inhibitory properties
- treatment of Cushing's syndrome (Cushing's syndrome; Nieman et al): successfully used
- antiglucocorticoid activity (Cushing's syndrome; in vivo): very significant antiglucocorticoid activity
- ED90 (actual dose) ([2]; actual dose giving ≥ 90% inhibition, results variable, data from "best run"): 1.0 µg
- ED50 [2, 5]: 0.28 µg
- ED90 (calculated) [2, 5]: 0.87 µg
